# Data published in ChEMBL document CHEMBL5356930, “Small-molecule inhibitors of bacterial-producing metallo-β-lactamases: insights into their resistance mechanisms and biochemical analyses of their activities” (RSC Med Chem, 2023).
# Experiments:
# [1] = Cytotoxicity against human HEK293 cells assessed as cell viability >533 uM relative to control; assay type: toxicity, cell-based; details: read-out: Activity
# Klebsiella pneumoniae [2] = assay: Antibacterial activity against IMP-type producing Klebsiella pneumoniae LC 82 clinical isolate in presence of imipenem; assay type: functional
# [3] = Cytotoxicity against mouse L929 cells assessed as cell viability >533 uM relative to control; assay type: toxicity, cell-based; details: read-out: Activity
# [4] = Binding affinity to bacterial Metallo-beta-lactamase IMP-1 (unknown origin) assessed as inhibition constant; parameters: species or system Bacteria
# Proteus mirabilis = assay: Antibacterial activity against IMP-type producing Proteus mirabilis UNC KPC 170 clinical isolate in presence of imipenem; assay type: functional
# [5] = biological target: T1, Metallo-beta-lactamase type 2 (Bacteria, UniProt C7C422); assay: Binding affinity to bacterial NDM-1 (unknown origin) assessed as inhibition constant
# Enterobacter sp. = assay: Antibacterial activity against IMP-type producing Enterobacter sp. 42713 clinical isolate in presence of imipenem; assay type: functional
# Beta-lactamase NDM-1 = Beta-lactamase NDM-1 (Escherichia coli, UniProt E5KIY2); assay: Inhibition of NDM-1 in Escherichia coli assessed as reduction in imipenem hydrolytic activity
# [6] = biological target: Metallo-beta-lactamase VIM-2 (Pseudomonas aeruginosa, UniProt D1MEN9); assay: Binding affinity to Metallo-beta-lactamase VIM-2 assessed as inhibition constant
# [7] = Binding affinity to bacterial Metallo-beta-lactamase VIM-2 (unknown origin) expressed in Escherichia coli BL21(DE3) cells assessed as inhibition constant; parameters: species or system Bacteria
# Escherichia coli [8] = assay: Synergistic activity against IMP-1 producing Escherichia coli NUBL-24 infected in CD1 mouse assessed as death rescue at 100 mg/kg, ip measured for 7 days in presence of meropenem relative to control; assay type: functional; details: time 7 day
# [9] = Binding affinity to bacterial Metallo-beta-lactamase IMP-1 (unknown origin) expressed in Escherichia coli BL21(DE3) cells assessed as inhibition constant; parameters: species or system Bacteria
# Klebsiella pneumoniae [10] = assay: Synergistic activity against NDM-1/VIM-1-producing Klebsiella pneumoniae MS5674 assessed as fractional inhibition concentration index in presence of meropenem by checkerboard assay; assay type: functional
# HeLa = assay: Cytotoxicity against human HeLa cells at >1000 uM incubated for 24 hrs by Celltiter assay relative to control; assay type: toxicity, cell-based
# Escherichia coli [11] = assay: Synergistic activity against IMP-1 producing engineered Escherichia coli NUBL-24 assessed as fractional inhibition concentration index incubated for 16 to 20 hrs in presence of meropenem by CLSI-based microdilution method; assay type: functional; details: time 16-20 hrs
# [12] = biological target: T1, Metallo-beta-lactamase type 2; assay: Inhibition of bacterial NDM-1 (unknown origin) using imipenem as substrate
# MCF7 = assay: Cytotoxicity against human MCF7 cells at 12.5 uM relative to control; assay type: toxicity, cell-based; details: mcf7, 12.5 µM
# Acinetobacter baumannii = assay: Antibacterial activity against MBL-producing Acinetobacter baumannii assessed as diameter of inhibition zone in presence of imipenem; assay type: functional
# [13] = Inhibition of Acinetobacter baumannii Metallo-beta-lactamase IMP-1
# [14] = biological target: T1, Metallo-beta-lactamase type 2; assay: Inhibition of bacterial NDM-1 (unknown origin) using nitrocefin as substrate incubated for 10 mins followed by substrate addition by absorbance based assay
# [15] = Inhibition of bacterial Metallo-beta-lactamase VIM-2 (unknown origin); parameters: species or system Bacteria
# [16] = Inhibition of bacterial Metallo-beta-lactamase GIM-1 using nitrocefin as substrate; parameters: species or system Bacteria
# [17] = biological target: T1, Metallo-beta-lactamase type 2; assay: Inhibition of bacterial NDM-1 (unknown origin)
# [18] = Cytotoxicity against human HeLa cells; assay type: toxicity, cell-based
# [19] = Cytotoxicity against human HeLa cells incubated for 24 hrs by PrestoBlue reagent based assay; assay type: toxicity, cell-based
# Bacteria = assay: Inhibition of bacterial Metallo-beta-lactamase VIM-5 (unknown origin) at 100 uM relative to control
# [20] = biological target: Beta-lactamase VIM-1 (Bacteria) (UniProt Q8GDC1); assay: Inhibition of bacterial Metallo-beta-lactamase VIM-1 (unknown origin) at 100 uM relative to control
# T1 sequence (C7C422 whole entry): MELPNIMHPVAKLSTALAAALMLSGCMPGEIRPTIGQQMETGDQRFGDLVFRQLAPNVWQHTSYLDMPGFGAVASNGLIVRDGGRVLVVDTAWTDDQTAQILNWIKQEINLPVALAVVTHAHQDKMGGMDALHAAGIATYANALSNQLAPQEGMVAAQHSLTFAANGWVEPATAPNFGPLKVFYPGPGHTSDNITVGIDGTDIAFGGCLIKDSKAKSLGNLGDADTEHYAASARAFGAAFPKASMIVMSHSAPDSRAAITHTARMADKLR
# Chain of Beta-lactamase NDM-1 (E5KIY2 whole entry): as the sequence (C7C422 whole entry) above
compound,measurement,setting,value
CCOC(=O)[C@]1(CS)N[C@@H](C(=O)O)C(C)(C)S1,viability at 533 µM,[1],85%
same,MIC,Klebsiella pneumoniae [2],0.5 µg/mL
same,viability,[3],85%
same,Ki,[4],2 µM
same,MIC,Proteus mirabilis,8 µg/mL
same,Ki,[5]; read-out: Ki,0.6 µM
same,MIC,Enterobacter sp.,8 µg/mL
same,IC50,Beta-lactamase NDM-1,10 µM
same,Ki,[6],1.9 µM
CCc1c(C(=O)O)c(S(N)(=O)=O)c(CC)n1C,Ki,[7],0.02 µM
same,Activity,Escherichia coli [8],100%
same,Ki,[9],0.26 µM
same,fractional inhibitory concentration index (FICI),Klebsiella pneumoniae [10],0.05
same,Activity,HeLa,> 50%
same,fractional inhibitory concentration index (FICI),Escherichia coli [11],0.26
O=S(=O)(Nc1cccc2cccnc12)c1ccc(Cl)cc1,IC50,[12],0.02 µM
same,Activity,MCF7,< 60%
same,Ki,[5]; read-out: Ki,5.9 µM
Oc1ccccc1/C=N/c1cccnc1/N=C/c1ccccc1O,diameter of the inhibition zone (DIZ),Acinetobacter baumannii,23 mm
same,IC50,[13],93.7 µM
Oc1ccc(Br)cc1/C=N/c1cccnc1/N=C/c1cc(Br)ccc1O,diameter of the inhibition zone (DIZ),Acinetobacter baumannii,25 mm
same,IC50,[13],83.7 µM
O=C(O)c1cccc2oc(-c3ccc4cc(OCc5ccccc5)ccc4c3O)nc12,IC50,[14],0.38 µM
COP(=O)(CCSC(C)=O)NCc1ccccn1 (centres undefined),IC50,[15],2.2 µM
same,IC50,[16],86 µM
CN1CCN(C(=S)N/N=C/c2ccccc2O)CC1,IC50,[17],0.302 µM
same,Ki,[5],440 µM
same,IC50,[18],> 64 µg/mL
O=C(Cc1ccccc1)N[C@@H]1C(=O)N2C(C(=O)O)=C(CSc3cccc[n+]3[O-])CS[C@H]12,IC50,[14],7.6 µM
COP(=O)(CCSC(C)=O)N(C)Cc1ccccn1 (racemic),IC50,[16],109 µM
same,IC50 at 24 h,[19],> 500 µM
Brc1ccc(-c2nnc3n2CCCS3)cc1,IC50,[15],38.4 µM
same,inhibition,Bacteria,33%
same,inhibition,[20],23%
